Patent publication US4874749A, “4"-Deoxy-4-N-methylamino avermectin Bla/Blb” (Merck & Co., Inc., priority 1987, dated 1989)

Key:
Assay type in all cases: in vivo
[1] = system: Spodoptera eridania larvae; assay: Foliar ingestion toxicity study against Spodoptera eridania larvae
[2] = system: Spodoptera eridania larvae; assay: Contact toxicity study against Spodoptera eridania larvae; conditions: 96 hours, in microgram per gram body weight (BTI 159)
Protocol: In a contact toxicity study against Spodoptera eridania larvae 4"-deoxy-4"-epimethylamino avermectin Bla/Blb was 4 times more toxic than 4"-deoxy-4"-epiamino avermectin Bla/Blb as measured at 96 hours in microgram per gram body weight. (BTI 159).

tobacco budworm = assay: LD90 test against tobacco budworm (micrograms/GWT); conditions: GWT = Gram Weight of the Test insect
Excerpt: (§1) For example, tests have been carried out in which the instant compound was compared with avermectin Bla/Blb (avermectin the starting material for the instant compound) and 4"-deoxy-4"-amino avermectin Bla/Blb. […] Expressed another way, 4"-deoxy-4"-amino avermectin Bla/Blb was 60% effective at 0.5 micrograms/GWT against southern armyworm while 4"-deoxy-4"-epi-N-methylamino avermectin Bla/Blb was 90% effective at 0.125 micrograms/GWT against the same parasite.

[3] = system: Rainbow Trout (Salmo gairdneri); assay: Acute toxicity to Rainbow Trout, static fish bioassay
Protocol: The static fish bioassay was conducted in five gallon glass vessels containing 15 liters of soft reconstituted water composed of the following compounds in the amounts stated per liter of deionized water:
This reconstituted water was prepared to yield a total hardness of 40-48 mg/l as CaCO3, a total alkalinity of 20-30 mg/l as CaCO3 and an initial pH of 7.2 to 7.6. The 0-hour measured control water parameters of this dilution water were dissolved oxygen 9.7 mg/l and pH 7.4.
The test vessels were kept in a water bath at 12° C. The test fish were acclimated to the dilution water and test temperature and held without food for 48-96 hours prior to testing.
Based on the results of preliminary testing, six concentrations of the test compound with ten fish per concentration were selected for the definitive bioassay. The definitive test concentrations were obtained by transferring appropriate aliquots of a working standard directly to the test chambers. The working standard was prepared in dimethylformamide (DMF). Also included was a dilution water control and a solvent control chamber.
The fish were added to the test chambers by random assignment within 30 minutes after addition of test material. All test organisms were observed once every 24 hours for mortality and abnormal (sub-lethal) effects. any dead individuals were removed from the test chambers after each 24-hour observation. The LC50 statistic and its 95 percent confidence limits were calculated by employing a computerized standard program.

Daphnia magna = assay: Acute toxicity to Daphnia magna
Protocol: In one test of the instant compound (see Example 5) and closely related avermectin compounds against Daphnia magna, described as a 48 hour LC50 test, that is, the concentration of compound which is fatal to 50% of Daphnia magna over a 48 hour period, it was observed that avermectin Bla/Blb has an LC50 of 300 ppt (parts per trillion); and 4"-deoxy-4"-amino avermectin Bla/Blb has an LC50 of 600 ppt.
Ten Dahpnia magna (first instar less than 24 hours old) were placed in a 250 ml glass beaker containing 200 ml of an aqueous solution of the test compounds in concentrations from 1.0 to 10 microgram/liter (ppb). The test compounds were dissolved in a small volume of acetone for dilution with water. The solvent control contained 0.010 ml of acetone which is equivalent to the highest test concentration. A control and solvent control was added to the experiment which was conducted in two replicates. All concentrations were observed once at 24 and 48 hours for mortality and abnormal effects such as surfacing, clumping of the daphnids together and daphnids lying on the bottom of the beakers.

Heliothis zea larvae [4] = assay: Contact toxicity study against Heliothis zea larvae; conditions: 96 hours
[5] = system: Heliothis virescens larvae; assay: Contact toxicity study against Heliothis virescens larvae
[6] = system: Heliothis virescens larvae; assay: Foliar ingestion toxicity study against Heliothis virescens larvae
southern armyworm = assay: LD90 test against southern armyworm (micrograms/GWT); conditions: GWT = Gram Weight of the Test insect
Excerpt: as §1

Heliothis zea larvae [7] = assay: Foliar ingestion toxicity against Heliothis zea larvae
[8] = system: Bluegill Sunfish (Lepomis macrochirus); assay: Acute toxicity to Bluegill Sunfish
Protocol: The same test procedure was used as described in example 6, except that Bluegill Sunfish were used and that the test vessels were kept in a water bath at 22° C.

[9] = 24 hr, nominal concentration 0.056 mg/l
[10] = 24 hr, nominal concentration 0.10 mg/l
[11] = 24 hr, nominal concentration 0.18 mg/l
[12] = 24 hr, nominal concentration 0.32 mg/l
[13] = 24 hr, nominal concentration 0.56 mg/l
[14] = 24 hr, nominal concentration 1.0 mg/l
[15] = 48 hr, nominal concentration 0.056 mg/l
[16] = 48 hr, nominal concentration 0.10 mg/l
[17] = 48 hr, nominal concentration 0.18 mg/l
[18] = 48 hr, nominal concentration 0.32 mg/l
[19] = 48 hr, nominal concentration 0.56 mg/l
[20] = 48 hr, nominal concentration 1.0 mg/l
[21] = 96 hr, nominal concentration 0.056 mg/l
[22] = 96 hr, nominal concentration 0.10 mg/l
[23] = 96 hr, nominal concentration 0.18 mg/l
[24] = 96 hr, nominal concentration 0.32 mg/l
[25] = 96 hr, nominal concentration 0.56 mg/l
[26] = 96 hr, nominal concentration 1.0 mg/l
[27] = 48 hour, ppt = parts per trillion
[28] = 0.04 microgram/gram body weight

## 4"-Deoxy-4"-epi-methylaminoavermectin Bla/Blb
[1]
  LC90 (lethal concentration for 90% of the insects): 0.005 ppm
  times more toxic than avermectin Bla/Blb (LC90): 1166 times
[2]
  times more toxic than 4"-deoxy-4"-epiamino avermectin Bla/Blb: 4 times
Tobacco budworm
  LD90 (Lethal Dose for 90% of the insects): 0.4 micrograms/GWT
[3]; 24 hours
  LC50: > 1.0 milligrams/liter (ppm)
[3]; [9]
  Percent Mortality: 0%
[3]; [10]
  Percent Mortality: 0%
[3]; [11]
  Percent Mortality: 0%
[3]; [12]
  Percent Mortality: 0%
[3]; [13]
  Percent Mortality: 0%
[3]; [14]
  Percent Mortality: 0%
[3]; 48 hours
  LC50: > 1.0 milligrams/liter (ppm)
[3]; [15]
  Percent Mortality: 0%
[3]; [16]
  Percent Mortality: 0%
[3]; [17]
  Percent Mortality: 0%
[3]; [18]
  Percent Mortality: 0%
[3]; [19]
  Percent Mortality: 0%
[3]; [20]
  Percent Mortality: 0%
[3]; 96 hours
  LC50: 0.67 milligrams/liter (ppm)
[3]; [21]
  Percent Mortality: 0%
[3]; [22]
  Percent Mortality: 0%
[3]; [23]
  Percent Mortality: 0%
[3]; [24]
  Percent Mortality: 0%
[3]; [25]
  Percent Mortality: 20%
[3]; [26]
  Percent Mortality: 100%
Daphnia magna; 24 hr, nominal concentration 1.0 microgram/l
  Percent Mortality: 0%
Daphnia magna; 24 hr, nominal concentration 1.8 microgram/l
  Percent Mortality: 0%
Daphnia magna; 24 hr, nominal concentration 3.2 microgram/l
  Percent Mortality: 20%
Daphnia magna; 24 hr, nominal concentration 5.6 microgram/l
  Percent Mortality: 30%
Daphnia magna; 24 hr, nominal concentration 10.0 microgram/l
  Percent Mortality: 90%
Daphnia magna; 48 hour LC50, vs 4"-deoxy-4"-amino avermectin Bla/Blb
  times less toxic than the 4"-amino compound: ~5 times
Daphnia magna; 48 hour LC50, vs avermectin Bla/Blb
  times less toxic than the avermectin Bla/Blb compound: ~10 times
Daphnia magna; [27]
  LC50: 2900 ppt
Daphnia magna; 48 hours
  LC50: 2.9 micrograms/l
Daphnia magna; 48 hr, nominal concentration 1.0 microgram/l
  Percent Mortality: 0%
Daphnia magna; 48 hr, nominal concentration 1.8 microgram/l
  Percent Mortality: 5%
Daphnia magna; 48 hr, nominal concentration 3.2 microgram/l
  Percent Mortality: 70%
Daphnia magna; 48 hr, nominal concentration 5.6 microgram/l
  Percent Mortality: 95%
Daphnia magna; 48 hr, nominal concentration 10.0 microgram/l
  Percent Mortality: 100%
Heliothis zea larvae [4]; [28]
  mortality: 20%
Heliothis zea larvae [4]; 0.4 microgram/g body weight
  mortality: 100%
Heliothis zea larvae [4]; 4.0 microgram/gram body weight
  mortality: 100%
[5]; 0.1 microgram/g body weight
  mortality: 25%
[5]; 0.4 microgram/g body weight
  mortality: 100%
[6]
  LC90: 0.003 ppm
  times more toxic than avermectin Bla/Blb (LC90): 43 times
Southern armyworm
  LD90 (Lethal Dose for 90% of the insects): 0.542 micrograms/GWT
Heliothis zea larvae [7]
  LC90: 0.002 ppm
  times more toxic than avermectin Bla/Blb (LC90): 105 times
[8]; 24 hours
  LC50: 0.75 milligrams/liter (ppm)
[8]; [9]
  Percent Mortality: 0%
[8]; [10]
  Percent Mortality: 0%
[8]; [11]
  Percent Mortality: 0%
[8]; [12]
  Percent Mortality: 0%
[8]; [13]
  Percent Mortality: 0%
[8]; [14]
  Percent Mortality: 100%
[8]; 48 hours
  LC50: 0.45 milligrams/liter (ppm)
[8]; [15]
  Percent Mortality: 0%
[8]; [16]
  Percent Mortality: 0%
[8]; [17]
  Percent Mortality: 0%
[8]; [18]
  Percent Mortality: 0%
[8]; [19]
  Percent Mortality: 90%
[8]; [20]
  Percent Mortality: 100%
[8]; 96 hours
  LC50: 0.24 milligrams/liter (ppm)
[8]; [21]
  Percent Mortality: 0%
[8]; [22]
  Percent Mortality: 0%
[8]; [23]
  Percent Mortality: 0%
[8]; [24]
  Percent Mortality: 100%
[8]; [25]
  Percent Mortality: 100%
[8]; [26]
  Percent Mortality: 100%

## 4"-deoxy-4"-amino avermectin Bla/Blb [reference compound]
Tobacco budworm
  LD90 (Lethal Dose for 90% of the insects): 1.3 micrograms/GWT
Daphnia magna; [27]
  LC50: 600 ppt
Daphnia magna; 48 hours
  LC50: 0.6 micrograms/l
Southern armyworm
  LD90 (Lethal Dose for 90% of the insects): 3.4 micrograms/GWT

## 4"-deoxy-4"-epiamino avermectin Bla/Blb [reference compound]
Heliothis zea larvae [4]; [28]
  mortality: 0%
Heliothis zea larvae [4]; 0.4 microgram/g body weight
  mortality: 90%
Heliothis zea larvae [4]; 4.0 microgram/gram body weight
  mortality: 100%
[5]; 0.1 microgram/g body weight
  mortality: 5%
[5]; 0.4 microgram/g body weight
  mortality: 30%

## avermectin Bla/Blb [reference compound]
[1]
  LC90 (lethal concentration for 90% of the insects): 5.83 ppm
Tobacco budworm
  LD90 (Lethal Dose for 90% of the insects): > 1.3 micrograms/GWT
[3]; 24 hours
  LC50: > 0.006 milligrams/liter (ppm)
[3]; 48 hours
  LC50: 0.0046 milligrams/liter (ppm)
[3]; 96 hours
  LC50: 0.0032 milligrams/liter (ppm)
Daphnia magna; [27]
  LC50: 300 ppt
Daphnia magna; 48 hours
  LC50: 0.34 micrograms/l
[6]
  LC90: 0.128 ppm
Southern armyworm
  LD90 (Lethal Dose for 90% of the insects): > 34.0 micrograms/GWT
Heliothis zea larvae [7]
  LC90: 0.21 ppm
[8]; 24 hours
  LC50: 0.029 milligrams/liter (ppm)
[8]; 48 hours
  LC50: 0.019 milligrams/liter (ppm)
[8]; 96 hours
  LC50: 0.0096 milligrams/liter (ppm)
